Measurements published in PubChem BioAssay AID2060883 (Molecular Pharmacology Branch, DTP, NCI, 2025).

Tested on: 843782-103-R-J1-PDC complex spheroid viability
Assay: Anticancer human tumor 843782-103-R-J1-PDC patient-derived lung adenocarcinoma cell line growth inhibition [RAS]
Conditions: for IC50: curve of first compound; for viability, T/C: stronger effect = lower value
Outline: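 Multi-cell-type spheroids: tumor cells plus HUVEC endothelial cells and mesenchymal stem cells. RAS-pathway inhibitors were combined with targeted agents, each dosed in half-log steps down from clinical Cmax, or from 10 microM when Cmax was unknown.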

[1] = second compound 0.000949 µM, first compound 0.0316 µM
[2] = second compound 0.000949 µM, first compound 0.1 µM
[3] = second compound 0.000949 µM, first compound 0.316 µM
[4] = second compound 0.000949 µM, first compound 1 µM
[5] = second compound 0.003 µM, first compound 0.0316 µM
[6] = second compound 0.003 µM, first compound 0.1 µM
[7] = second compound 0.003 µM, first compound 0.316 µM
[8] = second compound 0.003 µM, first compound 1 µM
[9] = second compound 0.00949 µM, first compound 0.0316 µM
[10] = second compound 0.00949 µM, first compound 0.1 µM
[11] = second compound 0.00949 µM, first compound 0.316 µM
[12] = second compound 0.00949 µM, first compound 1 µM
[13] = second compound 0.03 µM, first compound 0.0316 µM
[14] = second compound 0.03 µM, first compound 0.1 µM
[15] = second compound 0.03 µM, first compound 0.316 µM
[16] = second compound 0.03 µM, first compound 1 µM
[17] = second compound 0.0949 µM, first compound 0.0316 µM
[18] = second compound 0.0949 µM, first compound 0.1 µM
[19] = second compound 0.0949 µM, first compound 0.316 µM
[20] = second compound 0.0949 µM, first compound 1 µM
[21] = second compound 0.3 µM, first compound 0.0316 µM
[22] = second compound 0.3 µM, first compound 0.1 µM
[23] = second compound 0.3 µM, first compound 0.316 µM
[24] = second compound 0.3 µM, first compound 1 µM
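Further: viability read after seven days of compound exposure.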

C=CC(=O)Nc1cc(Nc2nccc(-c3cn(C)c4ccccc34)n2)c(OC)cc1N(C)CCN(C)C + CCn1c(-c2cccnc2C(C)OC)c2c3cc(ccc31)N1CCOC(CC(NC(=O)C(C(C)C)N(C)C(=O)C3(F)CCN(C(=O)C#CC(C)(C)N(C)C)CC3)C(=O)N3CCCC(N3)C(=O)OCC(C)(C)C2)C1
IC50 (second compound 0.000949 µM): 0.0782 µM | IC50 (second compound 0.003 µM): 0.194 µM | IC50 (second compound 0.00949 µM): 0.0764 µM | IC50 (second compound 0.03 µM): 0.167 µM | IC50 (second compound 0.0949 µM): 0.0922 µM | IC50 (second compound 0.3 µM): 0.11 µM | viability, T/C (second compound 0.000949 µM, first compound 0.00316 µM): 75.9% | viability, T/C (second compound 0.000949 µM, first compound 0.01 µM): 60.9% | viability, T/C [1]: 68.2% | viability, T/C [2]: 45.1% | viability, T/C [3]: 33.5% | viability, T/C [4]: 31.5% | viability, T/C (second compound 0.003 µM, first compound 0.00316 µM): 68.7% | viability, T/C (second compound 0.003 µM, first compound 0.01 µM): 57.3% | viability, T/C [5]: 66.3% | viability, T/C [6]: 64.3% | viability, T/C [7]: 39.6% | viability, T/C [8]: 30.9% | viability, T/C (second compound 0.00949 µM, first compound 0.00316 µM): 67.5% | viability, T/C (second compound 0.00949 µM, first compound 0.01 µM): 69.1% | viability, T/C [9]: 73% | viability, T/C [10]: 43.9% | viability, T/C [11]: 40.8% | viability, T/C [12]: 26.8% | viability, T/C (second compound 0.03 µM, first compound 0.00316 µM): 65.9% | viability, T/C (second compound 0.03 µM, first compound 0.01 µM): 73.6% | viability, T/C [13]: 58.9% | viability, T/C [14]: 55.3% | viability, T/C [15]: 44.4% | viability, T/C [16]: 31.9% | viability, T/C (second compound 0.0949 µM, first compound 0.00316 µM): 73.4% | viability, T/C (second compound 0.0949 µM, first compound 0.01 µM): 62.6% | viability, T/C [17]: 60.8% | viability, T/C [18]: 46.9% | viability, T/C [19]: 43% | viability, T/C [20]: 26.4% | viability, T/C (second compound 0.3 µM, first compound 0.00316 µM): 68% | viability, T/C (second compound 0.3 µM, first compound 0.01 µM): 66.2% | viability, T/C [21]: 63.9% | viability, T/C [22]: 51.6% | viability, T/C [23]: 35.2% | viability, T/C [24]: 31.5%

CC1(O)CCCC1n1c(=O)c(C(F)F)cc2cnc(NC3CCN(S(C)(=O)=O)CC3)nc21 (centres undefined) + CCn1c(-c2cc(N3CCN(C)CC3)cnc2C(C)OC)c2c3cc(ccc31)-c1csc(n1)CC(NC(=O)C1CC1C)C(=O)N1CCCC(N1)C(=O)OCC(C)(C)C2
IC50 (second compound 0.000949 µM): 0.123 µM | IC50 (second compound 0.003 µM): 0.0527 µM | IC50 (second compound 0.00949 µM): < 0.0316 µM | IC50 (second compound 0.03 µM): < 0.0316 µM | IC50 (second compound 0.0949 µM): < 0.0316 µM | IC50 (second compound 0.3 µM): < 0.0316 µM | viability, T/C [1]: 68.6% | viability, T/C [2]: 57% | viability, T/C [3]: 18.5% | viability, T/C [4]: 14.9% | viability, T/C (second compound 0.000949 µM, first compound 3.16 µM): 11.1% | viability, T/C (second compound 0.000949 µM, first compound 10 µM): 2.8% | viability, T/C [5]: 58.1% | viability, T/C [6]: 42.5% | viability, T/C [7]: 16.6% | viability, T/C [8]: 17.5% | viability, T/C (second compound 0.003 µM, first compound 3.16 µM): 13.2% | viability, T/C (second compound 0.003 µM, first compound 10 µM): 2.6% | viability, T/C [9]: 37.4% | viability, T/C [10]: 24.2% | viability, T/C [11]: 14.6% | viability, T/C [12]: 15.8% | viability, T/C (second compound 0.00949 µM, first compound 3.16 µM): 13.1% | viability, T/C (second compound 0.00949 µM, first compound 10 µM): 3.41% | viability, T/C [13]: 18.4% | viability, T/C [14]: 15.7% | viability, T/C [15]: 13% | viability, T/C [16]: 12.7% | viability, T/C (second compound 0.03 µM, first compound 3.16 µM): 13.5% | viability, T/C (second compound 0.03 µM, first compound 10 µM): 2.9% | viability, T/C [17]: 15.8% | viability, T/C [18]: 13.8% | viability, T/C [19]: 10.8% | viability, T/C [20]: 11.4% | viability, T/C (second compound 0.0949 µM, first compound 3.16 µM): 12% | viability, T/C (second compound 0.0949 µM, first compound 10 µM): 3.5% | viability, T/C [21]: 14.1% | viability, T/C [22]: 13.6% | viability, T/C [23]: 9.45% | viability, T/C [24]: 10% | viability, T/C (second compound 0.3 µM, first compound 3.16 µM): 9.83% | viability, T/C (second compound 0.3 µM, first compound 10 µM): 3.16%
